Reference: PMC7784776 (ACS chemical biology, 2020)
pIC50: −log10 of the molar value. In brackets after ≈: the same amount, converted by molar mass. Like-named read-outs stand apart in the source and are kept apart here.

Experiments:
[1] = target: PBP3 (Bacillus subtilis, UniProt P42971); assay: Fluorescent whole cell β-lactam titration with Boc-FL readout, SDS-PAGE; format: cell-based; details: IC50 PBP3, B. subtilis PY79 whole cells; average of two experiments
[2] = target: PBP1a/1b (Bacillus subtilis, UniProt P39793); assay: as above; format: cell-based
PBP1a/1b, sequence (P39793 77-662): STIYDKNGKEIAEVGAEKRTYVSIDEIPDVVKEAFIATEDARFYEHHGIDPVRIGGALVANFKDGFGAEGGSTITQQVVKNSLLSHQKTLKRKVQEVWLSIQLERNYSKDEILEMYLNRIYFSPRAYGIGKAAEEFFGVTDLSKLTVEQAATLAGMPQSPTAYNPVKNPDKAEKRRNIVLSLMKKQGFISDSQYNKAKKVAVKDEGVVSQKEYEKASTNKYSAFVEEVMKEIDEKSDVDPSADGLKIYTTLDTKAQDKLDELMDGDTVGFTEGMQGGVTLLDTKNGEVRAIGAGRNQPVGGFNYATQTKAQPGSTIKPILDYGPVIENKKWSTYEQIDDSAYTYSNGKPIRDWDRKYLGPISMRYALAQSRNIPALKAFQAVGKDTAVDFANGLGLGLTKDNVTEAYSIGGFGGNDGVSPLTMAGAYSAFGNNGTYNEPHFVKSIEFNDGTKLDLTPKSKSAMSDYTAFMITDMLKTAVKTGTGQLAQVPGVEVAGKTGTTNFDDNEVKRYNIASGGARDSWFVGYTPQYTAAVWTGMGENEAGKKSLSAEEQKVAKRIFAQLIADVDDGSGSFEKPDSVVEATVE

[3] = target: PBP2a (Bacillus subtilis, UniProt P54488); assay: as above; format: cell-based
PBP2a, sequence (P54488 whole entry): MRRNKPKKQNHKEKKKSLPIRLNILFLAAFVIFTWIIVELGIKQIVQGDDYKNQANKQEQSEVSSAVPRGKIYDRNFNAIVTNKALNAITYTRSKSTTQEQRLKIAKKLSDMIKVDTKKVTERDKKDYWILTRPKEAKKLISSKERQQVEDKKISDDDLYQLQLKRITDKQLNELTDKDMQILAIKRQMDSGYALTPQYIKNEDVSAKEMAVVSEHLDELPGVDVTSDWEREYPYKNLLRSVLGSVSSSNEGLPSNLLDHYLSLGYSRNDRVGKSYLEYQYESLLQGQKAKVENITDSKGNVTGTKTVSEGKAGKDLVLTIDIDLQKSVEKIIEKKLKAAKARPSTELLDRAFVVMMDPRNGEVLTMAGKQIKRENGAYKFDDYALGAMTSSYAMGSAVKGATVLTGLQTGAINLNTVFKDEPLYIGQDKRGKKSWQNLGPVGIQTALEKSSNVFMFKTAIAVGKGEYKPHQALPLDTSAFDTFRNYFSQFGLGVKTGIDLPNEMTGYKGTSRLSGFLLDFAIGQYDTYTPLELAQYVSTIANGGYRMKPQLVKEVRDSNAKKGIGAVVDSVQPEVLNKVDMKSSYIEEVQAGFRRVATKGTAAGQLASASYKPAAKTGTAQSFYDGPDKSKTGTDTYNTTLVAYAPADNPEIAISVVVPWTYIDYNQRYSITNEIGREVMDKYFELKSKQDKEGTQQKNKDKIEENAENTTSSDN

[4] = target: PBP4 (Bacillus subtilis, UniProt P40750); assay: as above; format: cell-based
PBP4, sequence (P40750 22-624): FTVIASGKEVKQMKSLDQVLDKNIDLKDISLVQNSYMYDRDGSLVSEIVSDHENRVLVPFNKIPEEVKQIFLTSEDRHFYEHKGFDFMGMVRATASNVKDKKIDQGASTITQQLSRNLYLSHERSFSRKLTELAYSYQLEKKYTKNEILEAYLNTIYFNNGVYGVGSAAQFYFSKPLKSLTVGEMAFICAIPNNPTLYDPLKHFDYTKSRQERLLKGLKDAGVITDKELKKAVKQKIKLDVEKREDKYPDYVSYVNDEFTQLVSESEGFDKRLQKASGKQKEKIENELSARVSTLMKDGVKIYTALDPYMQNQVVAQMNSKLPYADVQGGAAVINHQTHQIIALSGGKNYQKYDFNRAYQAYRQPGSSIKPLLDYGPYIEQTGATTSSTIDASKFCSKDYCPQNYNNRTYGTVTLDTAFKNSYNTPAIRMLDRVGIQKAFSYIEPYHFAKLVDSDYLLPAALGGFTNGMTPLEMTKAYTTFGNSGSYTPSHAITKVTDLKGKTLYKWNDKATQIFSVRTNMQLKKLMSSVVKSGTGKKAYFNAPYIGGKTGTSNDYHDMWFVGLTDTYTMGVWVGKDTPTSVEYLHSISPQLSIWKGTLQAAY

[5] = target: PBP5 (Bacillus subtilis, UniProt P08750); assay: as above; format: cell-based
PBP5, sequence (P08750 32-443): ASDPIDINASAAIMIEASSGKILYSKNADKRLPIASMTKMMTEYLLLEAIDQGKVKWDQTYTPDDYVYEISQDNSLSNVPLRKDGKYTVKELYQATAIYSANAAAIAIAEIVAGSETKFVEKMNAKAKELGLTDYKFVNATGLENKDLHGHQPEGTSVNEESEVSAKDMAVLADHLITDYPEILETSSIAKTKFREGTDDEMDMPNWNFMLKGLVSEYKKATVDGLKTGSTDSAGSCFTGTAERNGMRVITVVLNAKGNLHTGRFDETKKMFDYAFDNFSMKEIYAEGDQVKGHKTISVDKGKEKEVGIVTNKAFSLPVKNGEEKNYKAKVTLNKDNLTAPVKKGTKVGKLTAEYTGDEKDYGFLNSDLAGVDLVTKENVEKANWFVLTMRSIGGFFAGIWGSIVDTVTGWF

[6] = tested on: B. subtilis PY79; assay: Minimum inhibitory concentration; format: cell-based; details: Bacillus subtilis
[7] = target: PBP2b/H (Bacillus subtilis, UniProt Q07868); assay: Fluorescent whole cell β-lactam titration with Boc-FL readout, SDS-PAGE; format: cell-based; details: for inhibition of PBP2b at MIC: at growth inhibitory concentration, substantial inhibition (>50%) not the case
PBP2b/H, sequence (Q07868 whole entry): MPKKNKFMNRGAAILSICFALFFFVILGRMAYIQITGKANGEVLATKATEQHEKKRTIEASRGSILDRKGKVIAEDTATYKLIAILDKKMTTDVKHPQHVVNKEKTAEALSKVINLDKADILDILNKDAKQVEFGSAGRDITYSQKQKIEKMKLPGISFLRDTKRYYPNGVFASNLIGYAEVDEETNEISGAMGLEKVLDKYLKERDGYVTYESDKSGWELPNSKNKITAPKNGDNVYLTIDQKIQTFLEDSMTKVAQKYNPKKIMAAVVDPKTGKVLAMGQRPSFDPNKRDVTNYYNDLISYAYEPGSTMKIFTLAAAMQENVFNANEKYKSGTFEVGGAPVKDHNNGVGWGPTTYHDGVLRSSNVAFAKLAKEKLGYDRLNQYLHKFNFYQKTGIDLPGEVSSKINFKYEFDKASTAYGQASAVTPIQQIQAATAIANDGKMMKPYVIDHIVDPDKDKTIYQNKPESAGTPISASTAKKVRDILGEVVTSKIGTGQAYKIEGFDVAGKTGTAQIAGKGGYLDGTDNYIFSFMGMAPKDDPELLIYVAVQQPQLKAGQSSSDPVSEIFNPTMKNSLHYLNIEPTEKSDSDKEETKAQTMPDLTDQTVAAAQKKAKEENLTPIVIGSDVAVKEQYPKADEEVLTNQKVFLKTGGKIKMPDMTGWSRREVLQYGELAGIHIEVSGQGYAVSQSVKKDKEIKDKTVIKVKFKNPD

[8] = tested on: B. subtilis PBPs; assay: PBP inhibition/selectivity profile across all detected PBPs; format: cell-based, Bacillus subtilis; details: at MIC
[9] = tested on: B. subtilis PBPs; assay: β-Lactam titration of DK694; format: cell-based, Bacillus subtilis; details: DK694 (ΔpbpH) cells

PBP3, sequence (P42971 whole entry): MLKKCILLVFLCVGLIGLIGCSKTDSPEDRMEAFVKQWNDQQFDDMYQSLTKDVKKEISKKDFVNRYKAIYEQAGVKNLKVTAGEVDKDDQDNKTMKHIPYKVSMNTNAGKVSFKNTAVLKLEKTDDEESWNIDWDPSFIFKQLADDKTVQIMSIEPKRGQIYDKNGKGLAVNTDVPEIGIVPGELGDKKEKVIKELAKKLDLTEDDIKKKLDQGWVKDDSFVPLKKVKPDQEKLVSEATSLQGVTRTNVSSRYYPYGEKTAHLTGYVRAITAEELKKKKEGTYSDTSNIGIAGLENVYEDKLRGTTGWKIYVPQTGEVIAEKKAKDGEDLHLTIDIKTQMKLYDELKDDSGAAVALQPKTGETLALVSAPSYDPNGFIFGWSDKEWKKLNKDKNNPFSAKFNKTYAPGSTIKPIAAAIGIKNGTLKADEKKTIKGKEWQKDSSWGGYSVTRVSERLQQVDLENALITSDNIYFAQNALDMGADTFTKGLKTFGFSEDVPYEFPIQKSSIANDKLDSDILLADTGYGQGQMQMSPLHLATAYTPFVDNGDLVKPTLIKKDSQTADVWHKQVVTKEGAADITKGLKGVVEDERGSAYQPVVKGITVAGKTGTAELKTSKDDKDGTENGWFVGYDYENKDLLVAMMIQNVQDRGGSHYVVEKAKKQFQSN

Row | Compound | pIC50 [1] | pIC50 [2] | pIC50 [3] | pIC50 [4] | pIC50 [5] | MIC [6] [µg/mL] | pIC50 [7] | inhibition of PBP2b at MIC [7] [%] | PBP inhibition at growth inhibitory concentrations [8] | IC50 values for individual PBPs in DK694 (ΔpbpH) versus wild type [9] | pIC50 ([3]; read-out: IC50 PBP2a, B. subtilis PY79 whole cells, average of two experiments)
1 | CC1(C)S[C@@H]2[C@H](N)C(=O)N2[C@H]1C(=O)O [6-APA, 6-Aminopenicillanic acid] | < 2.33 | < 2.33 | 3.29 | < 2.33 | 4.72 | 8 to 256 (≈ 37 to 1180 µM) | < 2.33 | ≤ 50 | failed to significantly block any PBPs |  | 
2 | CC1(C)S[C@@H]2[C@H](NC(=O)[C@H](N)c3ccc(O)cc3)C(=O)N2[C@H]1C(=O)O [amoxicillin] | 6.42 | 8.56 | 6.69 | 6.68 | 5.52 | 4 (≈ 10.9 µM) | 6.62 |  |  |  | 
3 | CC1(C)S[C@@H]2[C@H](NC(=O)[C@H](N)c3ccccc3)C(=O)N2[C@H]1C(=O)O [ampicillin] | 6.92 | > 7.54 | 7.99 | 7.98 | 6.46 | 8 (≈ 22.9 µM) | 7.57 |  |  | comparable and within twofold in most cases | 
4 | C[C@H]1[C@H](NC(=O)/C(=N\OC(C)(C)C(=O)O)c2csc(N)n2)C(=O)N1S(=O)(=O)O [aztreonam] |  |  |  |  |  | 16 (≈ 36.7 µM) |  | ≤ 50 |  |  | 
5 | CO/N=C(\C(=O)N[C@@H]1C(=O)N2C(C(=O)O)=C(COC(C)=O)CS[C@H]12)c1csc(N)n1 [cefotaxime] | 5.66 | 8.54 |  | > 6.66 | < 2.66 | 0.0625 (≈ 0.137 µM) | > 6.66 |  |  |  | > 3.66
6 | CO[C@@]1(NC(=O)Cc2cccs2)C(=O)N2C(C(=O)O)=C(COC(N)=O)CS[C@@H]21 [cefoxitin] | 5.61 | 7.48 | 5.77 | 7.48 | 6.35 | 1 (≈ 2.34 µM) | 6.35 |  |  |  | 
7 | NC(=O)c1cc[n+](CC2=C(C(=O)O)N3C(=O)[C@@H](NC(=O)[C@@H](c4ccccc4)S(=O)(=O)[O-])[C@H]3SC2)cc1 [cefsulodin] | 3.58 | 7.74 | 4.15 | 6.65 | < 2.73 | 8 (≈ 15 µM) | 5.91 |  |  |  | 
8 | CO/N=C(\C(=O)N[C@@H]1C(=O)N2C(C(=O)O)=C(CSc3nc(=O)c(=O)[nH]n3C)CS[C@H]12)c1csc(N)n1 [ceftriaxone] | 5.33 | 7.87 | 4.53 | 7.44 | < 2.74 | 0.25 (≈ 0.451 µM) | 6.92 |  |  |  | 
9 | CO/N=C(\C(=O)N[C@@H]1C(=O)N2C(C(=O)O)=C(COC(N)=O)CS[C@H]12)c1ccco1 [cefuroxime] | 4.28 | 8.37 | 4.18 | 7.45 | < 2.63 | 0.125 (≈ 0.295 µM) | 6.72 |  |  |  | 
10 | CC1=C(C(=O)O)N2C(=O)[C@@H](NC(=O)[C@H](N)c3ccccc3)[C@H]2SC1 [cephalexin] | 4.16 | < 2.54 | > 6.54 | 3.14 | < 2.54 | 0.5 (≈ 1.44 µM) | > 6.54 |  |  |  | 
